From patent US20250066389A1, “HETEROCYCLIC AMIDES AND METHODS OF USING THE SAME” (Rgenta Therapeutics, Inc., priority 2021, published 2025)
Structures can show the parent of a compound that is named as a salt.

System: PMS1
Experiment: Mini-Gene Reporter Assay—PMS1 (firefly luciferase mini-gene reporter transiently transfected into HEK293 cells)
Format: cell-based
Conditions: Homo sapiens, mini-gene firefly luciferase reporter in HEK293 cells; for activation at 5 µM: read-out: PMS1 % Effect at 5 uM
Procedure, shortened: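 HEK293 cells transiently transfected with a mini-gene construct (skipped exon with flanking introns/exons fused to firefly luciferase, pcDNA3.1) are incubated with compounds in duplicate. Exon inclusion raises luminescence; EC50 fitted by Levenberg-Marquardt; effect also scored at 5 μM.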

IC50	Structure (SMILES)	activation at 5 µM
	COc1cc2nc(C)cn2cc1C(=O)Nc1ccc(N2CCC3NCCCC3C2)cc1F (stereo not drawn) [Compound 131, N-(2-fluoro-4-(octahydro-1,6-naphthyridin-6(2H)-yl)phenyl)-7-methoxy-2-methylimidazo[1,2-a]pyridine-6-carboxamide]	50 to 75%
	CCOc1cn2nc(C)cc2cc1C(=O)Nc1cnc(N2CCC(C3NCC3(C)C)CC2)nc1 (stereo not drawn) [Compound 606]	< 50%
< 1000 nM	CCOc1cc2nc(C)cn2cc1C(=O)Nc1ccc(N2CCNCC2)nn1 [Compound 290]	
1000 to 10000 nM	CCOc1cc2nc(C)cn2cc1C(=O)Nc1ccc(N2CC(NC)C2)nn1 [Compound 293]	
	CCOc1cn2nc(C)cc2cc1C(=O)Nc1cnc(NC2COC3(CNC3)C2)cn1 (stereo not drawn) [Compound 537]	< 50%
	CCOc1cc2nc(C)cn2cc1C(=O)Nc1cnc(N2CCNCC2)cn1 [Compound 693]	> 75%
	CCOc1cc2nn(C)cc2cc1C(=O)Nc1cnc(NCc2ccc(CN)cc2F)nc1 [Compound 445]	< 50%
	CCOc1cn2nc(C)cc2cc1C(=O)Nc1cnc(NC2CNCC2(C)C)cn1 (stereo not drawn) [Compound 500]	< 50%
	CCOc1cc2nn(C)cc2cc1C(=O)Nc1cnc(NC[C@@H]2CCCN2)nc1 [Compound 470]	< 50%
	CCOc1cc2nn(C)cc2cc1C(=O)Nc1cnc(NCCC2CCCNC2)nc1 (stereo not drawn) [Compound 462]	< 50%
	CCOc1cc2nn(C)cc2cc1C(=O)Nc1cnc(N2CC(N)C2)nc1 [Compound 479]	< 50%
< 1000 nM	COc1cc2nc(C)cn2cc1C(=O)Nc1cc(C)c(N2CCN[C@@H](C)C2)nn1 [Compound 302, 7-methoxy-2-methyl-N-{5-methyl-6-[(3S)-3-methylpiperazin-1-yl]pyridazin-3-yl}imidazo[1,2-a]pyridine-6-carboxamide]	
	CCOc1cc2nc(C)cn2cc1C(=O)Nc1cnc(N[C@@H]2CNC[C@@H]2F)cn1 [Compound 666]	50 to 75%
1000 to 10000 nM	COc1cc2nc(C)cn2cc1C(=O)Nc1ccc(N2CCNCC2C(F)F)cc1F (stereo not drawn) [Compound 627]	
	CCOc1cc2nn(C)cc2cc1C(=O)Nc1cnc(NCCCN2CCNCC2)cn1 [Compound 362]	< 50%
	CCOc1cc2nn(C)cc2cc1C(=O)Nc1cnc(NC[C@H](C)NC)nc1 [Compound 390]	< 50%
	CCOc1cc2nn(C)cc2cc1C(=O)Nc1cnc(N2CCNC(C)C2)cn1 (stereo not drawn) [Compound 374]	> 75%
< 1000 nM	COc1cc2nc(C)cn2cc1C(=O)Nc1ccc(N2CCNC(C)CC2)cc1F (stereo not drawn) [Compound 160, N-(2-fluoro-4-(5-methyl-1,4-diazepan-1-yl)phenyl)-7-methoxy-2-methylimidazo[1,2-a]pyridine-6-carboxamide]	
	CCOc1cn2nc(C)cc2cc1C(=O)Nc1cnc(N2CCOC3(CCNC3)C2)cn1 (stereo not drawn) [Compound 529]	50 to 75%
	COc1cc2nc(C)cn2cc1C(=O)Nc1ccc(N2CC(CO)C3(CNC3)C2)cc1F (stereo not drawn) [Compound 134, N-(2-fluoro-4-(8-(hydroxymethyl)-2,6-diazaspiro[3.4]octan-6-yl)phenyl)-7-methoxy-2-methylimidazo[1,2-a]pyridine-6-carboxamide]	< 50%
1000 to 10000 nM	CCNC1CN(c2ccc(NC(=O)c3cn4cc(C)nc4cc3OCC)nn2)C1 [Compound 262]	
	CCOc1cc2nn(C)cc2cc1C(=O)Nc1cnc(NCC2C=CCN2)nc1 (stereo not drawn) [Compound 385]	< 50%
	Cc1cn2cc(C(=O)Nc3ccc(N4CCNCC4)cc3F)nc(C)c2n1 [Compound 109, N-(2-fluoro-4-(piperazin-1-yl)phenyl)-2,8-dimethylimidazo[1,2-a] pyrazine-6-carboxamide hydrochloride]	> 75%
	CCOc1cn2nc(C)cc2cc1C(=O)Nc1cnc(NCC2(F)CNC2)cn1 [Compound 536]	< 50%
< 1000 nM	Cc1cn2cc(C(=O)Nc3ccc(N4CCN[C@@H](C)C4)nn3)c(O[C@H]3CCOC3)cc2n1 [Compound 213, 2-methyl-N-(6-((S)-3-methylpiperazin-1-yl)pyridazin-3-yl)-7-((tetrahydrofuran-3-yl)oxy)imidazo[1,2-a]pyridine-6-carboxamide]	
	CCOc1cn2nc(C)cc2cc1C(=O)Nc1cnc(N2CCNCC3(CC3)C2)nc1 [Compound 604]	< 50%

IC50	Structure (SMILES)	activation at 5 µM
	CCOc1cc2nn(C)cc2cc1C(=O)Nc1cnc(NCC2CNC(C)C2)cn1 (stereo not drawn) [Compound 318]	< 50%
1000 to 10000 nM	CCOc1cc2nc(C)cn2cc1C(=O)Nc1ccc(N2CCN(C3CCNC3)CC2)nn1 (stereo not drawn) [Compound 274]	
	CCOc1cc2nn(C)cc2cc1C(=O)Nc1cnc(NCC2CCC3(CCNCC3)CC2)cn1 [Compound 329]	< 50%
< 1000 nM	CCOc1cc2nc(C)cn2cc1C(=O)Nc1ccc(N2CCC(NC)C2)nn1 (stereo not drawn) [Compound 280]	
	CCOc1cc2nn(C)cc2cc1C(=O)Nc1cnc(N(C)CCNC)nc1 [Compound 484]	< 50%
	CCOc1cc2nn(C)cc2cc1C(=O)Nc1cnc(NCC2CNC(C)C2)nc1 (stereo not drawn) [Compound 413]	< 50%
	CNCC1CCN(c2ccc(NC(=O)c3cn4cc(C)nc4cc3OC)c(F)c2)C1 (stereo not drawn) [Compound 166, N-(2-fluoro-4-(3-((methylamino)methyl)pyrrolidin-1-yl)phenyl)-7-methoxy-2-methylimidazo[1,2-a]pyridine-6-carboxamide]	< 50%
	CCOc1cn2nc(C)cc2cc1C(=O)Nc1cnc(N2CC3C4CCC(NC4)C3C2)nc1 (stereo not drawn) [Compound 605]	< 50%
	CCOc1cn2nc(C)cc2cc1C(=O)Nc1cnc(N2C[C@H]3CNC[C@H]3C2)cn1 [Compound 547]	> 75%
	CCOc1cc2nn(C)cc2cc1C(=O)Nc1cnc(N2CC(N)C3(CC3)C2)nc1 (stereo not drawn) [Compound 444]	< 50%
	CCOc1cc2nn(C)cc2cc1C(=O)Nc1cnc(NC2CNCC(C)C2)cn1 (stereo not drawn) [Compound 323]	< 50%
< 1000 nM	Cc1cn2cc(C(=O)Nc3ccc(N4CCN[C@@H](C)C4)nn3)c(OC(C)C)cc2n1 [Compound 199, (S)-7-isopropoxy-2-methyl-N-(6-(3-methylpiperazin-1-yl)pyridazin-3-yl)imidazo[1,2-a]pyridine-6-carboxamide]	
1000 to 10000 nM	CCOc1cc2nc(C)cn2cc1C(=O)Nc1ccc(N2C[C@H]3CNCC[C@H]32)nn1 (racemic) [Compound 239]	
	COc1cc2nc(C)cn2cc1C(=O)Nc1ccc(N2CCC3(CCN3)CC2)cc1F [Compound 143, N-(2-fluoro-4-(1,7-diazaspiro[3.5]nonan-7-yl)phenyl)-7-methoxy-2-methylimidazo[1,2-a]pyridine-6-carboxamide]	> 75%
	CCOc1cc2nn(C)cc2cc1C(=O)Nc1cnc(NC2C=CCNC2)cn1 (stereo not drawn) [Compound 324]	< 50%
	CCOc1cc2nn(C)cc2cc1C(=O)Nc1cnc(NCC2C3CNCC32)cn1 (stereo not drawn) [Compound 322]	< 50%
1000 to 10000 nM	COc1c(C(=O)Nc2ccc(N3CCNCC3)cc2F)cn2cc(C)nc2c1C [Compound 127, N-(2-fluoro-4-(piperazin-1-yl)phenyl)-7-methoxy-2,8-dimethylimidazo[1,2-a]pyridine-6-carboxamide]	
	CCOc1cn2nc(C)cc2cc1C(=O)Nc1cnc(N2CCN[C@@H](C)C2)cn1 [Compound 701, 6-ethoxy-2-methyl-N-{5-[(3S)-3-methylpiperazin-1-yl]pyrazin-2-yl}pyrazolo[1,5-a]pyridine-5-carboxamide]	> 75%
1000 to 10000 nM	CCOc1cc2nc(C)cn2cc1C(=O)Nc1ccc(N2CC[C@@H]3NCCC[C@@H]3C2)nn1 (racemic) [Compound 241]	
< 1000 nM	CCOc1cc2nc(C)cn2cc1C(=O)Nc1cnc(N2CCN[C@@H](C)C2)cn1 [Compound 700, 7-ethoxy-2-methyl-N-5-[(3S)-3-methylpiperazin-1-yl]pyrazin-2-ylimidazo[1,2-a]pyridine-6-carboxamide]	
	CCOc1cc2nn(C)cc2cc1C(=O)Nc1cnc(N2CCCNC(C)C2)cn1 (stereo not drawn) [Compound 332]	> 75%
< 1000 nM	COc1cc2nc(C)cn2cc1C(=O)Nc1ccc(N2CCNC(C)C2)cc1F (stereo not drawn) [Compound 179, N-(2-fluoro-4-(3-methylpiperazin-1-yl)phenyl)-7-methoxy-2-methylimidazo[1,2-a]pyridine-6-carboxamide]	
< 1000 nM	CCOc1nc2nc(C)cn2cc1C(=O)Nc1ccc(N2CCN[C@@H](C)C2)nn1 [Compound 224, (S)-7-ethoxy-2-methyl-N-(6-(3-methylpiperazin-1-yl)pyridazin-3-yl)imidazo[1,2-a]pyrimidine-6-carboxamide hydrochloride]	
< 1000 nM	COc1cc2nc(C)cn2cc1C(=O)Nc1ccc(N2CCC3(CCCN3)CC2)cc1F [Compound 132, N-(2-fluoro-4-(1,8-diazaspiro[4.5]decan-8-yl)phenyl)-7-methoxy-2-methylimidazo[1,2-a]pyridine-6-carboxamide]	
	CCOc1cc2nn(C)cc2cc1C(=O)Nc1cnc(NCC(F)C2CCNCC2)nc1 (stereo not drawn) [Compound 381]	< 50%
	COc1cc2nc(C)cn2cc1C(=O)Nc1ccc(N2C[C@H]3CNC[C@H]3C2)cc1F [Compound 161, N-(2-fluoro-4-((3aR,6aS)-hexahydropyrrolo[3,4-c]pyrrol-2(1H)-yl)phenyl)-7-methoxy-2-methylimidazo[1,2-a]pyridine-6-carboxamide]	> 75%

Structure (SMILES)	IC50	activation at 5 µM
Cc1cn2cc(C(=O)Nc3ccc(N4CCN[C@@H](C)C4)cc3F)c(OC3CCC3)cc2n1 [Compound 705, 7-cyclobutoxy-N-2-fluoro-4-[(3S)-3-methylpiperazin-1-yl]phenyl-2-methylimidazo[1,2-a]pyridine-6-carboxamide]	< 1000 nM	
CCOc1cc2nn(C)cc2cc1C(=O)Nc1ccc(C2=CCNCC2)nn1 [Compound 708, 6-ethoxy-2-methyl-N-(6-(1,2,3,6-tetrahydropyridin-4-yl)pyridazin-3-yl)-2H-indazole-5-carboxamide formate]	< 1000 nM	
